This is an account of results in patent US9944603B2, “Compounds and methods for the treatment of cystic fibrosis” (Flatley Discovery Lab, LLC, priority 2013, dated 2018).

SMILES strings stand for the structures. pEC50: −log10 of the molar value.

T1 sequence (P13569 with tags, fused parts or gaps DEL508-508): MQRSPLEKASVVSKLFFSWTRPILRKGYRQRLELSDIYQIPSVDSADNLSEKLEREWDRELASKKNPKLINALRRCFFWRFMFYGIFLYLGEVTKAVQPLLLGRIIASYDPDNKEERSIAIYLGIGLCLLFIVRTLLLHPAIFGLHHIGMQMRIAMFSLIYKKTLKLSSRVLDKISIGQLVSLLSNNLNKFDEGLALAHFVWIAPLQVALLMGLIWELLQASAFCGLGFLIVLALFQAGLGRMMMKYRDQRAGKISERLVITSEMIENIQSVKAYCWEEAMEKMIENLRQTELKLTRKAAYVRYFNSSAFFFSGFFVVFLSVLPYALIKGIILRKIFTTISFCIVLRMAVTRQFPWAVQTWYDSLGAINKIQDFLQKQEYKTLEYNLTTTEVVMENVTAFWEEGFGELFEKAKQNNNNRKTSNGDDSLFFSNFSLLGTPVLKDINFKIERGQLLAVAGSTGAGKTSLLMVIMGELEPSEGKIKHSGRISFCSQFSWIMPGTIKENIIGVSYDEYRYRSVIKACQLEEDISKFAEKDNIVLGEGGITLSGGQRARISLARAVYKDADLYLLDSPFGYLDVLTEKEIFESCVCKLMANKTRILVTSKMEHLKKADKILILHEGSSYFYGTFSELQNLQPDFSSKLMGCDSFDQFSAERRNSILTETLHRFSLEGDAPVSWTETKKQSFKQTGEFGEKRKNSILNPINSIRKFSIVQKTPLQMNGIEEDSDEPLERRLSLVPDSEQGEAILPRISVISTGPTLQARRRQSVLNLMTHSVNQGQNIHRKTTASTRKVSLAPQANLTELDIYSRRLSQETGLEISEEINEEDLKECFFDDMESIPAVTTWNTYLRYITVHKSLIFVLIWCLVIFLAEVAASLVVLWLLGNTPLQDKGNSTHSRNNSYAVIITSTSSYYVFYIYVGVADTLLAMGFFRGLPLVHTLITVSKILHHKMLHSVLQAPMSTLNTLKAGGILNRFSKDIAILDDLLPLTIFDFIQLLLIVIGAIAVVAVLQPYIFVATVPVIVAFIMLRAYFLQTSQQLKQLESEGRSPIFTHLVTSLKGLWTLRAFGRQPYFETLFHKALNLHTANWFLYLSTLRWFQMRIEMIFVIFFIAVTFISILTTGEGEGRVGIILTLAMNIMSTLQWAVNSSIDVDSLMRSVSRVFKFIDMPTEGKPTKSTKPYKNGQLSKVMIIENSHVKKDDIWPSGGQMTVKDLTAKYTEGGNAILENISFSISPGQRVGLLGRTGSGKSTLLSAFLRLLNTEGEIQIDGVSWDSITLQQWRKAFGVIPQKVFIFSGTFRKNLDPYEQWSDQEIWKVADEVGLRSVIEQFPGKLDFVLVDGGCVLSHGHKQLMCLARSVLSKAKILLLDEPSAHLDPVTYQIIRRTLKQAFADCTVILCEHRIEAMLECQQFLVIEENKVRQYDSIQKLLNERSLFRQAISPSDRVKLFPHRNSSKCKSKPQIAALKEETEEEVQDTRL

One experiment has as its target T1, human F508del CFTR (Homo sapiens, UniProt P13569, DEL508-508).
T1 construct: expressed in transfected cells
Kind of experiment: CFTR-YFP Assay, CFTR Corrector Protocol (YFP flux assay).
Conditions: not given
The experiment is classed as cell-based.
By pEC50 is commonly meant the negative decadic logarithm of the EC50, by convention in mol/L. A higher pEC50 goes with a low EC50. As to `O=S(=O)(c1ccc2c(c1)OC(F)(F)O2)N1CCC(n2c(-c3cccnc3F)nc3cccnc32)CC1` [Example 119], the negative logarithm of the EC50 (pEC50) was > 5.00.
Regarding `CCc1ccc(S(=O)(=O)N2CCC(n3c(-c4cccnc4F)nc4cccnc43)CC2)cc1` [Example 120], the pEC50 was > 5.00.
Regarding `O=S(=O)(c1ccc2c(c1)CCO2)N1CCC(n2c(-c3ccc(F)cc3F)nc3cccnc32)CC1` [Example 121], the pEC50 is > 5.00.
Same read-out and setting: the figure for `O=S(=O)(c1ccc2c(c1)CCC2)N1CCC(n2c(-c3ccc(F)cc3F)nc3cccnc32)CC1` [Example 122] is > 5.00.
On the same count and under the same terms, under `O=S(=O)(c1ccc2c(c1)OCO2)N1CCC(n2c(-c3cccnc3F)nc3cccnc32)CC1` [Example 123] stands > 5.00.
The same measure, in the same setting: the figure for `O=S(=O)(c1ccc2c(c1)OC(F)(F)O2)N1CCC(n2c(-c3ccccc3OC(F)(F)F)nc3cccnc32)CC1` [Example 124] is > 5.00; for `O=S(=O)(c1ccc2c(c1)OC(F)(F)O2)N1CCC(n2c(-c3ccc(F)cc3C(F)(F)F)nc3cccnc32)CC1` [Example 125] it is > 5.00.
Turning to `O=S(=O)(c1ccc2c(c1)OC(F)(F)O2)N1CCC(n2c(-c3ccccc3OC(F)F)nc3cccnc32)CC1` [Example 126], the pEC50 is > 5.00.
`COc1ccc2nc(-c3ccncc3F)n(C3CCN(S(=O)(=O)c4ccc5c(c4)OC(F)(F)O5)CC3)c2n1` [Example 127]: the negative-log EC50 (pEC50) is > 5.00.
On to `O=S(=O)(c1ccc2c(c1)OC(F)(F)O2)N1CCC(n2c(-c3ccncn3)nc3cccnc32)CC1` [Example 128], for which the pEC50 was > 5.00.
On the same count and under the same terms, the figure for `O=S(=O)(c1ccc(OC(F)F)cc1)N1CCC(n2c(-c3ccncc3F)nc3nccnc32)CC1` [Example 129] is > 5.00; for `O=S(=O)(c1ccc2c(c1)OC(F)(F)O2)N1CCC(n2c(-c3ccccc3F)nc3cccnc32)CC1` [Example 130] it is > 5.00.
`CCc1ccc(S(=O)(=O)N2CCC(n3c(-c4ccncn4)nc4cccnc43)CC2)cc1` [Example 131]: the negative-log EC50 (pEC50) was > 5.00.
The same measure, in the same setting: under `Cc1nc2ccc(S(=O)(=O)N3CCC(n4c(-c5ccncc5F)nc5cccnc54)CC3)cc2s1` [Example 132] stands > 5.00.
Same read-out and setting: the figure for `Cc1nc2ccc(S(=O)(=O)N3CCC(n4c(-c5ccncc5F)nc5cccnc54)CC3)cc2o1` [Example 133] is > 5.00; for `Cc1nc2ccc(S(=O)(=O)N3CCC(n4c(-c5ccc(F)cc5F)nc5cccnc54)CC3)cc2o1` [Example 134] it is > 5.00.
With `[2H]C1([2H])Oc2ccc(S(=O)(=O)N3CCC(n4c(-c5cccnc5Cl)nc5cccnc54)CC3)cc2O1` [Example 135], the negative logarithm of the EC50 (pEC50) was 4.70 to 5.00.
Regarding `[2H]C1([2H])Oc2ccc(S(=O)(=O)N3CCC(n4c(-c5ccncc5F)nc5cccnc54)CC3)cc2O1` [Example 136], the pEC50 is > 5.00.
The same measure, in the same setting: under `O=S(=O)(c1ccc2c(c1)OC(F)(F)O2)N1CCC(n2c(-c3ccncc3Cl)nc3cnccc32)CC1` [Example 137] stands 4.70 to 5.00.
On the same count and under the same terms, under `CCc1ccc(S(=O)(=O)N2CCC(n3c(-c4ccncc4F)nc4ccc(OC)nc43)CC2)cc1` [Example 138] stands < 4.70; under `Cc1noc2ccc(S(=O)(=O)N3CCC(n4c(-c5ccncc5F)nc5cccnc54)CC3)cc12` [Example 139], < 4.70; under `Cc1noc2ccc(S(=O)(=O)N3CCC(n4c(-c5ccc(F)cc5F)nc5cccnc54)CC3)cc12` [Example 140], < 4.70.
On the same count and under the same terms, under `Cc1n[nH]c2ccc(S(=O)(=O)N3CCC(n4c(-c5ccncc5F)nc5cccnc54)CC3)cc12` [Example 141] stands > 5.00.
For the compound `Cc1cc2cc(S(=O)(=O)N3CCC(n4c(-c5ccncc5F)nc5cccnc54)CC3)ccc2[nH]1` [Example 142], the negative-log EC50 (pEC50) is > 5.00.
The same measure, in the same setting: under `Cc1cc2cc(S(=O)(=O)N3CCC(n4c(-c5ccc(F)cc5F)nc5cccnc54)CC3)ccc2[nH]1` [Example 143] stands > 5.00.
Still for that read-out and setting: under `Cc1n[nH]c2ccc(S(=O)(=O)N3CCC(n4c(-c5ccc(F)cc5F)nc5cccnc54)CC3)cc12` [Example 144] stands > 5.00; under `CC(=O)N1c2ccc(S(=O)(=O)N3CCC(n4c(-c5ccncc5F)nc5cccnc54)CC3)cc2CC1C` (stereo not drawn) [Example 145], > 5.00.

Staying with this experiment, now noted: normalized to the positive control, read-out: EMAX (% Efficacy, EMAX normalized to the positive control).
For orientation: Emax means the size of the effect at its maximum, as opposed to the concentration needed. `O=S(=O)(c1ccc2c(c1)OC(F)(F)O2)N1CCC(n2c(-c3cccnc3F)nc3cccnc32)CC1` [Example 119]: the maximal response (Emax) is > 80%.
Regarding `CCc1ccc(S(=O)(=O)N2CCC(n3c(-c4cccnc4F)nc4cccnc43)CC2)cc1` [Example 120], the Emax was > 80%.
Still for that read-out and setting: under `O=S(=O)(c1ccc2c(c1)CCO2)N1CCC(n2c(-c3ccc(F)cc3F)nc3cccnc32)CC1` [Example 121] stands 30 to 80%; under `O=S(=O)(c1ccc2c(c1)CCC2)N1CCC(n2c(-c3ccc(F)cc3F)nc3cccnc32)CC1` [Example 122], > 80%; under `O=S(=O)(c1ccc2c(c1)OCO2)N1CCC(n2c(-c3cccnc3F)nc3cccnc32)CC1` [Example 123], 10 to 30%.
With `O=S(=O)(c1ccc2c(c1)OC(F)(F)O2)N1CCC(n2c(-c3ccccc3OC(F)(F)F)nc3cccnc32)CC1` [Example 124], the maximum response (Emax) fell in the range of 30 to 80%.
The same measure, in the same setting: the figure for `O=S(=O)(c1ccc2c(c1)OC(F)(F)O2)N1CCC(n2c(-c3ccc(F)cc3C(F)(F)F)nc3cccnc32)CC1` [Example 125] is 30 to 80%; for `O=S(=O)(c1ccc2c(c1)OC(F)(F)O2)N1CCC(n2c(-c3ccccc3OC(F)F)nc3cccnc32)CC1` [Example 126] it is 30 to 80%.
In the case of `COc1ccc2nc(-c3ccncc3F)n(C3CCN(S(=O)(=O)c4ccc5c(c4)OC(F)(F)O5)CC3)c2n1` [Example 127], the Emax was 30 to 80%.
On the same count and under the same terms, the figure for `O=S(=O)(c1ccc2c(c1)OC(F)(F)O2)N1CCC(n2c(-c3ccncn3)nc3cccnc32)CC1` [Example 128] is 10 to 30%; for `O=S(=O)(c1ccc(OC(F)F)cc1)N1CCC(n2c(-c3ccncc3F)nc3nccnc32)CC1` [Example 129] it is 10 to 30%.
The same measure, in the same setting: under `O=S(=O)(c1ccc2c(c1)OC(F)(F)O2)N1CCC(n2c(-c3ccccc3F)nc3cccnc32)CC1` [Example 130] stands 30 to 80%.
The same measure, in the same setting: the figure for `CCc1ccc(S(=O)(=O)N2CCC(n3c(-c4ccncn4)nc4cccnc43)CC2)cc1` [Example 131] is 10 to 30%.
Take `Cc1nc2ccc(S(=O)(=O)N3CCC(n4c(-c5ccncc5F)nc5cccnc54)CC3)cc2s1` [Example 132]: the maximum response (Emax) fell in the range of 30 to 80%.
Still for that read-out and setting: the figure for `Cc1nc2ccc(S(=O)(=O)N3CCC(n4c(-c5ccncc5F)nc5cccnc54)CC3)cc2o1` [Example 133] is > 80%; for `Cc1nc2ccc(S(=O)(=O)N3CCC(n4c(-c5ccc(F)cc5F)nc5cccnc54)CC3)cc2o1` [Example 134] it is 30 to 80%.
Regarding `[2H]C1([2H])Oc2ccc(S(=O)(=O)N3CCC(n4c(-c5cccnc5Cl)nc5cccnc54)CC3)cc2O1` [Example 135], the maximal effect (Emax) lay in the range of 10 to 30%.
Still for that read-out and setting: under `[2H]C1([2H])Oc2ccc(S(=O)(=O)N3CCC(n4c(-c5ccncc5F)nc5cccnc54)CC3)cc2O1` [Example 136] stands 10 to 30%; under `O=S(=O)(c1ccc2c(c1)OC(F)(F)O2)N1CCC(n2c(-c3ccncc3Cl)nc3cnccc32)CC1` [Example 137], 10 to 30%; under `CCc1ccc(S(=O)(=O)N2CCC(n3c(-c4ccncc4F)nc4ccc(OC)nc43)CC2)cc1` [Example 138], 30 to 80%.
Same read-out and setting: the figure for `Cc1noc2ccc(S(=O)(=O)N3CCC(n4c(-c5ccncc5F)nc5cccnc54)CC3)cc12` [Example 139] is 10 to 30%; for `Cc1noc2ccc(S(=O)(=O)N3CCC(n4c(-c5ccc(F)cc5F)nc5cccnc54)CC3)cc12` [Example 140] it is 10 to 30%.
Still for that read-out and setting: the figure for `Cc1n[nH]c2ccc(S(=O)(=O)N3CCC(n4c(-c5ccncc5F)nc5cccnc54)CC3)cc12` [Example 141] is 10 to 30%; for `Cc1cc2cc(S(=O)(=O)N3CCC(n4c(-c5ccncc5F)nc5cccnc54)CC3)ccc2[nH]1` [Example 142] it is 10 to 30%.
On to `Cc1cc2cc(S(=O)(=O)N3CCC(n4c(-c5ccc(F)cc5F)nc5cccnc54)CC3)ccc2[nH]1` [Example 143], for which the Emax lay within 10 to 30%.
Same read-out and setting: the figure for `Cc1n[nH]c2ccc(S(=O)(=O)N3CCC(n4c(-c5ccc(F)cc5F)nc5cccnc54)CC3)cc12` [Example 144] is 10 to 30%; for `CC(=O)N1c2ccc(S(=O)(=O)N3CCC(n4c(-c5ccncc5F)nc5cccnc54)CC3)cc2CC1C` (stereo not drawn) [Example 145] it is 10 to 30%.
